# Measurements published in patent US7741047B2, “Method for treating autoimmune diseases and screening method for preventive or therapeutic agent for the same” (Kowa Co., Ltd., priority 2003, dated 2010).
# Tests used:
# [1] = system: RHO cells (RBAp48-stable cell line from HSG cells); assay: Apoptosis of RBAp48-stable cell line after addition of IPTG; format: cell-based, human; details: from two hours to twelve hours after addition of IPTG
# Excerpt: (§1) A stable cell line in which RBAp48 expression is stably regulated by addition of IPTG to the culture system is established by means of LacSwitch II Inducible Mammalian Expression System (STRATEGENE) through use of HSG cells (RHO cell). […] Separately, the RHO cells were investigated in terms of cell cycle related molecules (i.e., RBs, phosphorylated RB, CyclinD3, and p19ARF) in the cell lysates six hours after addition of IPTG, through western blotting by use of the corresponding antibodies (BD Transduction Laboratory). […] In addition, a nuclear extract of IPTG-added RHO cells was subjected to gel shift assay.
# [2] = system: MSG:B6, ERαKO, HSG, MCF-7, Jurkat, HT-29 and Colo201 cells; assay: Apoptosis induction of cultured cells, positive control groups; format: cell-based; details: staurosporin 10^−6 M, all cell groups, not differing from one group to another
# Protocol: (§2) Cells of each of the following cell lines were cultured through a routine method; mouse salivary gland cell lines (MSG:B6 and ERαKO); human salivary gland cell line (HSG); human breast cancer cultured-cell line (MCF-7); human acute T cell leukemia cell line (Jurkat); and human colon cancer cultured-cell lines (HT-29 and Colo201). The cultured cells were reacted with tamoxifen (Tam, final concentration: 10^−7 M), an antagonist of estrogen. […] Separately, the above cultured cells were reacted with staurosporin (an apoptosis inducer, final concentration: 10^−6 M), and the resultant cells were used as a positive control group. Forty-eight hours after the addition of Tam, apoptosis of the cells was determined by means of a flow cytometer, by use of Annexin-V-FITC.
# RBAp48 mRNA in HSG cells = assay: Northern blotting of genes with enhanced expression by anti-estrogen effect; format: cell-based, human
# [3] = system: human breast cancer cultured-cell line (MCF-7); details: MCF-7 cells, previously known; cited from earlier work
# [4] = system: mouse salivary gland cell line MSG (B6); assay: Apoptosis induction of cultured cells, Annexin-V-FITC flow cytometry; format: cell-based; details: Tam 10^−7 M, 48 hours after addition, compared with groups without Tam
# Protocol: as §2
# [5] = system: human salivary gland cell line (HSG); assay: as above; format: cell-based; details: Tam 10^−7 M, 48 hours after addition, compared with groups without Tam
# Protocol: as §2
# [6] = system: ERαKO-mouse-derived MSG cells; assay: as above; format: cell-based; details: Tam 10^−7 M, 48 hours
# Protocol: as §2
# [7] = system: RHO cells (RBAp48-stable cell line from HSG cells); assay: Effect of siRNA on RBAp48-induced apoptosis, Annexin-V-FITC flow cytometry; format: cell-based, human; details: 50 nM siRNA by lipofection, IPTG 24 h after transfer, culture 8 h
# Excerpt: as §1
# siRNA of RBAp48 was prepared (sense; CGAGGAAUACAAAAUAUGGTT (SEQ ID NO: 1), antisense; CCAUAUUCUGUAUUCCUCGTT (SEQ ID NO: 2)). […] The percent apoptotic cells of the cultured cells was determined by means of a flow cytometer, by use of Annexin-V-FITC.
compound,measurement,setting,value
"CC(C)S[C@@H]1O[C@H](CO)[C@H](O)[C@H](O)[C@H]1O [IPTG, isopropyl-β-D-thiogalactoside]",percent apoptotic cells,[1],increase over time
CN[C@@H]1C[C@H]2O[C@@](C)([C@@H]1OC)n1c3ccccc3c3c4c(c5c6ccccc6n2c5c31)C(=O)NC4 [staurosporin],percent apoptotic cells,[2],high
CC/C(=C(\c1ccccc1)c1ccc(OCCN(C)C)cc1)c1ccccc1 [tamoxifen],mRNA (RBAp48 gene) expression,"RBAp48 mRNA in HSG cells; tamoxifen 10^−7 M, northern blotting",enhanced expression
same,RBAp48 mRNA expression,RBAp48 mRNA in HSG cells; two hours after Tam stimulation,strong RBAp48 mRNA expression
same,apoptosis induction,[3],known to be induced
same,percent apoptotic cells,[4],significantly high
same,percent apoptotic cells,[5],significantly high
same,apoptosis induction,[6],not to be induced
"RBAp48 siRNA: siRNA of RBAp48: sense CGAGGAAUACAAAAUAUGGTT (SEQ ID NO: 1), antisense CCAUAUUCUGUAUUCCUCGTT (SEQ ID NO: 2)",apoptosis induced by addition of IPTG,[7],significantly suppressed
